In PMC6309939 (Pain, 2019) one finds EC50 data, which are given here for 1 molecule.

As usually defined, the EC50 is the concentration needed to bring the measured effect to its halfway point.

The target in the test is human α4β3δ GABAA receptor (β3 subunit) (Homo sapiens, UniProt P28472). Kind of test: two-electrode voltage clamp in oocytes, potentiation of GABA EC10 currents. The test is classed as cell-based. (Two-electrode voltage clamp holds a large cell at a set potential and records current.)
human α4β3δ GABAA receptor (β3 subunit), sequence (P28472 26-473): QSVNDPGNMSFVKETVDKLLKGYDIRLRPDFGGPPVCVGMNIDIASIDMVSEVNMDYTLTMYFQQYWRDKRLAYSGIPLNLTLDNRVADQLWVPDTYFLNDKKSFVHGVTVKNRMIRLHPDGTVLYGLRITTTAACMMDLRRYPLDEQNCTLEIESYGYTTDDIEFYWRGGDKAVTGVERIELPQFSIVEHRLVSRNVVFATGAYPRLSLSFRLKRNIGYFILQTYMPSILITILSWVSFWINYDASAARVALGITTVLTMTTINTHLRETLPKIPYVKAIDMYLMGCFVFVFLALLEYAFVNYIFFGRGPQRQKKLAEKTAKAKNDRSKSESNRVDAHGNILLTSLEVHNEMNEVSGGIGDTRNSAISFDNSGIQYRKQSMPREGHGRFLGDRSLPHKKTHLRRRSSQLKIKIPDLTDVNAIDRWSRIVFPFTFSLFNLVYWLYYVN
human α4β3δ GABAA receptor (β3 subunit), sequence (P48169 36-554 partner): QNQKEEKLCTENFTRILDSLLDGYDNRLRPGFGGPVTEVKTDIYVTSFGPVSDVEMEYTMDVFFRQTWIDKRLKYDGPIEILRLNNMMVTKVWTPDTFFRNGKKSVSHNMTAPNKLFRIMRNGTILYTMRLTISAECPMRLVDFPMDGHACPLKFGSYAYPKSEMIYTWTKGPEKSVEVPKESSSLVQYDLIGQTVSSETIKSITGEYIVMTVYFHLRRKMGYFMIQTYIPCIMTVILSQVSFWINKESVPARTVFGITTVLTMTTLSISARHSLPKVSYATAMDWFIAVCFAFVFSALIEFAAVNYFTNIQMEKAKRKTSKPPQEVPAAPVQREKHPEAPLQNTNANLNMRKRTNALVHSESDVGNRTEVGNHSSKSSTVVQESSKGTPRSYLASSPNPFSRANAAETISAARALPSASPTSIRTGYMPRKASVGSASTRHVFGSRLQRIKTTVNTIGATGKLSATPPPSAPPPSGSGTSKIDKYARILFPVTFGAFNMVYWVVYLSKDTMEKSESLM
human α4β3δ GABAA receptor (β3 subunit), sequence (O14764 25-452 partner): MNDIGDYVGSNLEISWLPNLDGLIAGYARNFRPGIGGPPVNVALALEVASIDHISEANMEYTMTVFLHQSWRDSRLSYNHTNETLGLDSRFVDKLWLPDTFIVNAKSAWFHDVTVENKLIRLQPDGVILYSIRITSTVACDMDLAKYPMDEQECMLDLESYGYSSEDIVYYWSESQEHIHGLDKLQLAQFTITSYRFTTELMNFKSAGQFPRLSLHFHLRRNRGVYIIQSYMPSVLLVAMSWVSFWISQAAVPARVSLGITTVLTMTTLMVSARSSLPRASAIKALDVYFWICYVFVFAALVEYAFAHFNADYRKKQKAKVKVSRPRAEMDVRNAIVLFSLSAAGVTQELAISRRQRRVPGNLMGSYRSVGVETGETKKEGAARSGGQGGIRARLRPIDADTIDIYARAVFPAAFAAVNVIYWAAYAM

On to `CC(=O)[C@H]1CC[C@H]2[C@@H]3CC[C@H]4C[C@H](O)CC[C@]4(C)[C@H]3CC[C@]12C` [ALLO, allopregnanolone], for which the EC50 is 520 nM.
